For assay [1], the system named is Human immunodeficiency virus 1. In words: Antiviral activity against K103N/Y181C strain of HIV-1. In kind it is functional, organism-based.
Assay [2] has as its system Human immunodeficiency virus 1. As to the kind of experiment: Antiviral activity against V106A strain of HIV-1. In kind it is functional, organism-based.
For assay [3], the system named is Human immunodeficiency virus 1. As to the kind of experiment: Antiviral activity against K103N/L100I strain of HIV-1. In kind it is functional, organism-based.
Assay [4] concerns Human immunodeficiency virus 1. As to the kind of experiment: Antiviral activity against wild-type HIV-1. In kind it is functional, organism-based.
Assay [5] deals with Human immunodeficiency virus 1. As to the kind of experiment: Antiviral activity against Y188C strain of HIV-1. In kind it is functional, organism-based.
The subject of assay [6] is Human immunodeficiency virus 1. In words: Antiviral activity against L100I strain of HIV-1. In kind it is functional, organism-based.
The test system of assay [7] is Human immunodeficiency virus 1. In words: Antiviral activity against E138K strain of HIV-1. In kind it is functional, organism-based.
For assay [8], the system named is Human immunodeficiency virus 1. In words: Antiviral activity against K103N/V108I strain of HIV-1. In kind it is functional, organism-based.
The test system of assay [9] is Human immunodeficiency virus 1. In words: Antiviral activity against V108I strain of HIV-1. In kind it is functional, organism-based.
Assay [10] has as its system Human immunodeficiency virus 1. In words: Antiviral activity against G190A strain of HIV-1. In kind it is functional, organism-based.
Assay [11] relates to Human immunodeficiency virus 1. In words: Antiviral activity against K103N strain of HIV-1. In kind it is functional, organism-based.
Assay [12] concerns Human immunodeficiency virus 1. In words: Antiviral activity against Y181C strain of HIV-1. In kind it is functional, organism-based.
The test system of assay [13] is Human immunodeficiency virus 1. In words: Antiviral activity against K101E strain of HIV-1. In kind it is functional, organism-based.
For assay [14], the system named is Human immunodeficiency virus 1. In words: Antiviral activity against K103N/G190A strain of HIV-1. In kind it is functional, organism-based.
Assay [15] deals with MT4. In words: Antiviral activity against MT-4 cells infected with Nev-R strain of HIV-1. To be noted: Homo sapiens.
In assay [16] the test system is Human immunodeficiency virus 1. As to the kind of experiment: Antiviral activity against P225H strain of HIV-1. In kind it is functional, organism-based.
For assay [17], the system named is MT4. As to the kind of experiment: Antiviral activity against MT-4 cells infected with wild-type HIV-1. The conditions noted are these: Homo sapiens.
Assay [18] relates to Human immunodeficiency virus 1. In words: Antiviral activity against V106A/Y181C strain of HIV-1. In kind it is functional, organism-based.
Assay [19] concerns Human immunodeficiency virus 1. In words: Antiviral activity against K103N/P225H strain of HIV-1. In kind it is functional, organism-based.
Assay [20] has as its system Human immunodeficiency virus 1. In words: Antiviral activity against V108I/Y181C strain of HIV-1. In kind it is functional, organism-based.
The subject of assay [21] is Human immunodeficiency virus 1. As to the kind of experiment: Antiviral activity against V106I/Y181C strain of HIV-1. In kind it is functional, organism-based.
The subject of assay [22] is Human immunodeficiency virus 1. In words: Antiviral activity against P236L strain of HIV-1. In kind it is functional, organism-based.
Assay [23] deals with Human immunodeficiency virus 1. As to the kind of experiment: Antiviral activity against V106I strain of HIV-1. In kind it is functional, organism-based.

Here are results for three compounds from ChEMBL document CHEMBL1148482, “Novel benzophenones as non-nucleoside reverse transcriptase inhibitors of HIV-1” (J Med Chem, 2004).

The structures appear in SMILES notation.

A word on the IC50: it is the concentration that gives 50% inhibition.

Turning to `CC(C)Nc1cccnc1N1CCN(C(=O)c2cc3cc(NS(C)(=O)=O)ccc3[nH]2)CC1` [DELAVIRDINE], the IC50 in assay [1] was above 8.4 µM; in assay [2] it was 0.9 µM; in assay [3], above 8.4 µM; in assay [4], 200 nM; in assay [5] it was 170 nM; in assay [6], 920 nM. Besides, the IC50 in assay [7] was found to be 10 nM; in [8], 3.5 µM; in assay [9], 78 nM; in assay [10], 35 nM; in assay [11], 2.7 µM; in assay [12], 2.3 µM. Also, the IC50 in assay [13] is 29 nM; in assay [14] it was 2700 nM; in assay [15], 2400 nM; in [16], 11 nM; in [17], 160 nM; in [18], above 10 µM. The IC50 in [19] is 2.3 µM; in [20], above 10 µM; in [21], 4.5 µM; in [22], 1600 nM; in [23] (read-out: IC50) it was 55 nM.
`O=C1Nc2ccc(Cl)cc2[C@@](C#CC2CC2)(C(F)(F)F)O1` [EFAVIRENZ]: the IC50 in [15] came to 2.7 nM; in assay [17], 3.5 nM.
Turning to `Cc1ccnc2c1NC(=O)c1cccnc1N2C1CC1` [NEVIRAPINE], the IC50 was above 10 µM in [1]; 9 µM in assay [2]; 8 µM in assay [3]; 100 nM in [4]; 2300 nM in assay [5]; 500 nM in [6]. Moreover, the half-inhibitory concentration (IC50) is 65 nM in assay [7]; 15 µM in assay [8]; 290 nM in assay [9]; above 10000 nM in [10]; 6.6 µM in [11]; 9.4 µM in [12]. Moreover, the concentration for half-maximal inhibition (IC50) was 520 nM in [13]; above 10000 nM in assay [14]; 17200 nM in [15]; 1200 nM in assay [16]; 96 nM in assay [17]; above 10 µM in [18]. Moreover, the half-maximal inhibitory concentration (IC50) in assay [19] is 9.8 µM; in [20], above 10 µM; in [21], above 10 µM; in [22], 56 nM; in [23] it was 150 nM.
